{"source": "patent US9340590B2", "about": "(priority 2011, dated 2016)", "assay_in_all_cases": "cell-based", "key": {"hNav1.7": {"target": "hNav1.7 (Homo sapiens, UniProt Q15858)", "sequence (Q15858 whole entry, looked up)": "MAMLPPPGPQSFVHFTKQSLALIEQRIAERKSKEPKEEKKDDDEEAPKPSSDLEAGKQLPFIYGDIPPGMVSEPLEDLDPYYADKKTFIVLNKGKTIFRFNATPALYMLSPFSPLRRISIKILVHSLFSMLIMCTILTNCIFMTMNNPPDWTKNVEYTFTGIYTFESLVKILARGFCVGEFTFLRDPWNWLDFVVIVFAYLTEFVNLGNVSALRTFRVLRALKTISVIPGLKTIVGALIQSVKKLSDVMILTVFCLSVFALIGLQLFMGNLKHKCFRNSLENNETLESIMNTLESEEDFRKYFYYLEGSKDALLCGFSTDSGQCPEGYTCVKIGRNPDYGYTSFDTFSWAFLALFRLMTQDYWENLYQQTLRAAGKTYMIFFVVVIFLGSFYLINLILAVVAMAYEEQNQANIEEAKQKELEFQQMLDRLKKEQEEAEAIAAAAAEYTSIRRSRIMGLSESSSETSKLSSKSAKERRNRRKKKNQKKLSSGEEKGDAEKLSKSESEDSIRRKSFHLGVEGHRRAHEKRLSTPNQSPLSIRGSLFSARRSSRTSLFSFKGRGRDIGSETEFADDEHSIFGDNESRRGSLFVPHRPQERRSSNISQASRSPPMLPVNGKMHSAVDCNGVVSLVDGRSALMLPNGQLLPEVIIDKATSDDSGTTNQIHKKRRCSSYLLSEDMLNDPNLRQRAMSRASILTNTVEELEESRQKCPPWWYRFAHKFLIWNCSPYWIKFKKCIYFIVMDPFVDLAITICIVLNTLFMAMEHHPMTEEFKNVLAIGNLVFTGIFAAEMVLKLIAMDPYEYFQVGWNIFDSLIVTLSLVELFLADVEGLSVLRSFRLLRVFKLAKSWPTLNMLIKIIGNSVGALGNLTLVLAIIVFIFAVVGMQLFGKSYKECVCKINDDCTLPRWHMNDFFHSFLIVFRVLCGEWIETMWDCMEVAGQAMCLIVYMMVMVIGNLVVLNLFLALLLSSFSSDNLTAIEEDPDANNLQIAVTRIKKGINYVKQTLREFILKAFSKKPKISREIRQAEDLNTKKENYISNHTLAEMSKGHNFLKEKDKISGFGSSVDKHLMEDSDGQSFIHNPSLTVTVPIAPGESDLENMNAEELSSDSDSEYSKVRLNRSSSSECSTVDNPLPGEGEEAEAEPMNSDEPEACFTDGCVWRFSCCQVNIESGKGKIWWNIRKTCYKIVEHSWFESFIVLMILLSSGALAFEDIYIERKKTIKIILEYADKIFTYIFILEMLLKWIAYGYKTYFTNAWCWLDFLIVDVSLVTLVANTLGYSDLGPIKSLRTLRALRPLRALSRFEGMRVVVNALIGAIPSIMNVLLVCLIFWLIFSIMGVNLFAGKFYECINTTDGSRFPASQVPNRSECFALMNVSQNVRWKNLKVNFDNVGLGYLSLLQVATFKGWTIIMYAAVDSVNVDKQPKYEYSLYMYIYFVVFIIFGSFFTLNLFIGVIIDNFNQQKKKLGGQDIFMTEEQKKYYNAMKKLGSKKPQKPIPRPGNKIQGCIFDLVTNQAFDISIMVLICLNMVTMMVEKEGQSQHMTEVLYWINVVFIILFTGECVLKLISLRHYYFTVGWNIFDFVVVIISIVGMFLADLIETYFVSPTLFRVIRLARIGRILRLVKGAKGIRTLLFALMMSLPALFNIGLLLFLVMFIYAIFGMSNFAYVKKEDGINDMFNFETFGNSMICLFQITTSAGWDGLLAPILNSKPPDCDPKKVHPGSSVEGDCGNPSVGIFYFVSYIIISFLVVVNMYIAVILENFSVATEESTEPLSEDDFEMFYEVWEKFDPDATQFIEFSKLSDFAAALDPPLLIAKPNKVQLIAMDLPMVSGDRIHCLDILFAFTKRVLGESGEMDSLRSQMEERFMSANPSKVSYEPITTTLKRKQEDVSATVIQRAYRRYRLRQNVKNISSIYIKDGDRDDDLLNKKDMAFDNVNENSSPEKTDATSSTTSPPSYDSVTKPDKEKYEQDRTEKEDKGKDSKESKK", "type": "cell-based"}, "hNav1.3": {"target": "hNav1.3 (Homo sapiens, UniProt Q9NY46)", "sequence (Q9NY46 whole entry, looked up)": "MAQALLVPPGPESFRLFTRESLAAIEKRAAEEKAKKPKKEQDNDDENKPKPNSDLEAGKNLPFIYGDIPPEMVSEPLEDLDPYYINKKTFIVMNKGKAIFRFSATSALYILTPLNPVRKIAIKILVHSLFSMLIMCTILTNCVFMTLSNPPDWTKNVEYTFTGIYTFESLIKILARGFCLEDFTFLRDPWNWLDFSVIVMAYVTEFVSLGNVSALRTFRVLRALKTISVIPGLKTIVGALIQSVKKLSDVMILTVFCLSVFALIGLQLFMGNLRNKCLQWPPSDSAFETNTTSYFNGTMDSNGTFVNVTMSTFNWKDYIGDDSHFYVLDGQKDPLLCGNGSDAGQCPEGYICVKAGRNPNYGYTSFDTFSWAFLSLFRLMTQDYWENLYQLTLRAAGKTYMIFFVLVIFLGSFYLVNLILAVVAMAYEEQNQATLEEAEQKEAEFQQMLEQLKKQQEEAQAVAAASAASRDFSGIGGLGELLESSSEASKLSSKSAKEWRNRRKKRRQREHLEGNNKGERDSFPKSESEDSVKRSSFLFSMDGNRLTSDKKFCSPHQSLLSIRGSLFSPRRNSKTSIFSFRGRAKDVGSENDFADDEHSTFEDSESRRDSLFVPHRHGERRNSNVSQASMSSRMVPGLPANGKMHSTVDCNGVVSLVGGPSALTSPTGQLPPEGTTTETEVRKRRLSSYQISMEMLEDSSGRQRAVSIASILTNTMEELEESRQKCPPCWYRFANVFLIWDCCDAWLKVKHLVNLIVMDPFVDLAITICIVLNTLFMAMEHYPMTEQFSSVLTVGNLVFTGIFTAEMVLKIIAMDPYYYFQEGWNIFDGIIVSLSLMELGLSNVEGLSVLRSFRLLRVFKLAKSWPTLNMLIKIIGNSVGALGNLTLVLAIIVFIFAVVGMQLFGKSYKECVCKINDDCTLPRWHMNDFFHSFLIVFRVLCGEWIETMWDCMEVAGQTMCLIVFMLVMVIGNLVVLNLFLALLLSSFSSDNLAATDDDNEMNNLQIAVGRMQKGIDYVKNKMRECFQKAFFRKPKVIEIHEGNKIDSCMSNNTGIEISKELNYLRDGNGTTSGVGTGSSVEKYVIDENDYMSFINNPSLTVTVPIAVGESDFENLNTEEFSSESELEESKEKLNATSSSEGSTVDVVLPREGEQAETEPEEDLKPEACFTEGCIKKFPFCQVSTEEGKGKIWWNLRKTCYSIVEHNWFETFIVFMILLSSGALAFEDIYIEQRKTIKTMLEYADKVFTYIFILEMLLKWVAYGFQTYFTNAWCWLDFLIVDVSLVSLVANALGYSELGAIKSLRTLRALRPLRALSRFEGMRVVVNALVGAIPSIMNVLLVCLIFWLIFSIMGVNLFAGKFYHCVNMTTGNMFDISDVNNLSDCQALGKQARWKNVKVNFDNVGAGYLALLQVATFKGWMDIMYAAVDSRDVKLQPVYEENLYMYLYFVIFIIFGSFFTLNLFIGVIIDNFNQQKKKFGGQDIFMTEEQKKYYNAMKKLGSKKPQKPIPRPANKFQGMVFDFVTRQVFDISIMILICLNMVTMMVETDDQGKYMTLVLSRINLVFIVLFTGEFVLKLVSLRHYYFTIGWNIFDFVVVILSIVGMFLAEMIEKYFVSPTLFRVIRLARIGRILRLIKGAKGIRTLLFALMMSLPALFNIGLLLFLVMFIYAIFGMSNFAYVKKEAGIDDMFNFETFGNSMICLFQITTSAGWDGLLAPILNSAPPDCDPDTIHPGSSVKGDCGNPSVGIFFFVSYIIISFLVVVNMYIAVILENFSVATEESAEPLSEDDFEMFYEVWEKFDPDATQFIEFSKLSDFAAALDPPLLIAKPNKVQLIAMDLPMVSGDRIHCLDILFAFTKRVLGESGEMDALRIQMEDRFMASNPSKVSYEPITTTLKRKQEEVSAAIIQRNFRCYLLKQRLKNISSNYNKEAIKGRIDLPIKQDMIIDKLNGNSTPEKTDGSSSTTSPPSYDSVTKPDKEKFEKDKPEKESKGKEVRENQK", "conditions": "IonWorks Quattro, read-out: IWQ Use Nav1.3"}, "hNav1.5": {"target": "hNav1.5 (Homo sapiens, UniProt Q14524)", "conditions": "IonWorks Quattro, read-out: IWQ Use Nav1.5"}, "[1]": {"conditions": "IonWorks Quattro, use-dependent block, hNav1.7, read-out: IWQ Use Nav1.7"}, "[2]": {"conditions": "IonWorks Quattro, Use, read-out: IWQ Use Nav1.7"}}, "note": "Read-outs that look alike come from different tables or passages of the source. Positions of bridges follow the written chain, without caps; N, C: chain ends. Non-standard residues stand in square brackets, D forms with d. Residues, ends and D or L forms follow the SMILES beside them. 2Pal = N[C@@H](Cc1ccccn1)C(=O)O; Phg = N[C@H](C(=O)O)c1ccccc1; Sar = CNCC(=O)O"}
{"smiles": "CC[C@H](C)[C@@H]1NC(=O)[C@@H]2CSSC[C@@H]3NC(=O)[C@H](C(C)C)NC(=O)[C@H](CC(C)C)NC(=O)[C@H](CC(N)=O)NC(=O)[C@@H]4CCCN4C(=O)[C@H](CCCNC(=N)N)NC(=O)[C@H](CSSC[C@H](NC(=O)[C@@H](N)CC(=O)O)C(=O)N[C@@H](CC(C)C)C(=O)NCC(=O)N[C@@H](Cc4ccccc4)C(=O)N[C@@H](CCSC)C(=O)N[C@@H](CCCNC(=N)N)C(=O)N[C@@H](CCCCN)C(=O)N2)NC(=O)[C@H](CSSC[C@@H](C(=O)N[C@@H](CCCCN)C(=O)N[C@@H](CCCCN)C(=O)N[C@H](C(=O)N[C@@H](Cc2ccccc2)C(=O)N[C@@H](Cc2c[nH]c4ccccc24)C(N)=O)C(C)C)NC(=O)[C@H](Cc2c[nH]c4ccccc24)NC(=O)[C@H](CCCCN)NC(=O)[C@H](Cc2c[nH]cn2)NC(=O)[C@H]([C@@H](C)O)NC(=O)[C@H](CCCNC(=N)N)NC(=O)[C@H](CO)NC3=O)NC(=O)[C@H](CCCCN)NC(=O)[C@H](CC(=O)O)NC(=O)[C@H](CC(N)=O)NC(=O)[C@H](CC(=O)O)NC(=O)[C@@H]2CCCN2C1=O", "note": "[compound 127] (H-DCLGFMRKCIPDNDKCCRPNLVCSRTHKWCKKVFW-NH2; disulfide 2-17, 9-23, 16-30)", "values": [{"measurement": "IC50", "setting": "hNav1.7; [1]", "result": 730, "unit": "nM"}, {"measurement": "IC50", "setting": "hNav1.3; use-dependent block, hNav1.3", "result": 700, "unit": "nM"}, {"measurement": "IC50", "setting": "hNav1.5; use-dependent block, hNav1.5", "result": 18900, "unit": "nM"}]}
{"smiles": "CC[C@H](C)[C@@H]1NC(=O)[C@@H]2CSSC[C@@H]3NC(=O)[C@H](C(C)C)NC(=O)[C@H](CC(C)C)NC(=O)[C@H](CC(N)=O)NC(=O)[C@@H]4CCCN4C(=O)[C@H](CCCNC(=N)N)NC(=O)[C@H](CSSC[C@H](NC(=O)[C@@H](N)CC(=O)O)C(=O)N[C@@H](CC(C)C)C(=O)NCC(=O)N[C@@H](C)C(=O)N[C@@H](Cc4ccccc4)C(=O)N[C@@H](CCCNC(=N)N)C(=O)N[C@@H](CCCCN)C(=O)N2)NC(=O)[C@H](CSSC[C@@H](C(=O)N[C@@H](CCCCN)C(=O)N[C@@H](Cc2ccc(O)cc2)C(=O)N[C@H](C(=O)N[C@@H](Cc2ccccc2)C(=O)O)C(C)C)NC(=O)[C@H](Cc2c[nH]c4ccccc24)NC(=O)[C@H](Cc2c[nH]cn2)NC(=O)[C@H](Cc2c[nH]cn2)NC(=O)[C@H]([C@@H](C)O)NC(=O)[C@H](CCCNC(=N)N)NC(=O)[C@H](CO)NC3=O)NC(=O)[C@H](CCCCN)NC(=O)[C@H](CC(=O)O)NC(=O)[C@H](CC(N)=O)NC(=O)[C@H](CC(=O)O)NC(=O)[C@@H]2CCCN2C1=O", "note": "[compound 828] (H-DCLGAFRKCIPDNDKCCRPNLVCSRTHHWCKYVF-OH; disulfide 2-17, 9-23, 16-30)", "values": [{"measurement": "IC50", "setting": "hNav1.7; [1]", "result": "> 5000", "unit": "nM"}, {"measurement": "IC50", "setting": "hNav1.3; use-dependent block, hNav1.3", "result": "> 5000", "unit": "nM"}, {"measurement": "IC50", "setting": "hNav1.5; use-dependent block, hNav1.5", "result": "> 5000", "unit": "nM"}]}
{"smiles": "CC[C@H](C)[C@@H]1NC(=O)[C@@H]2CSSC[C@@H]3NC(=O)[C@H](C(C)C)NC(=O)[C@H](CC(C)C)NC(=O)[C@H](CC(N)=O)NC(=O)[C@@H]4CCCN4C(=O)[C@H](CCCNC(=N)N)NC(=O)[C@H](CSSC[C@H](NC(=O)[C@@H](N)CC(=O)O)C(=O)N[C@@H](CC(C)C)C(=O)NCC(=O)N(C)CC(=O)N[C@@H](Cc4ccccc4)C(=O)N[C@@H](CCCNC(=N)N)C(=O)N[C@@H](CCCCN)C(=O)N2)NC(=O)[C@H](CSSC[C@@H](C(=O)N[C@@H](CCCCN)C(=O)N[C@@H](Cc2ccc(O)cc2)C(=O)N[C@H](C(=O)N[C@@H](Cc2ccccc2)C(N)=O)C(C)C)NC(=O)[C@H](Cc2c[nH]c4ccccc24)NC(=O)[C@H](CCCCN)NC(=O)[C@H](Cc2c[nH]cn2)NC(=O)[C@H]([C@@H](C)O)NC(=O)[C@H](CCCNC(=N)N)NC(=O)[C@H](CO)NC3=O)NC(=O)[C@H](CCCCN)NC(=O)[C@H](CC(=O)O)NC(=O)[C@H](CC(N)=O)NC(=O)[C@H](CC(=O)O)NC(=O)[C@@H]2CCCN2C1=O", "note": "[compound 632] (H-DCLG[Sar]FRKCIPDNDKCCRPNLVCSRTHKWCKYVF-NH2; disulfide 2-17, 9-23, 16-30)", "values": [{"measurement": "IC50", "setting": "hNav1.7; IonWorks Quattro, use-dependent protocol, hNav1.7, read-out: IWQ Use Nav1.7", "result": 680, "unit": "nM"}, {"measurement": "IC50", "setting": "hNav1.3; use-dependent protocol, hNav1.3", "result": 450, "unit": "nM"}, {"measurement": "IC50", "setting": "hNav1.5; use-dependent protocol, hNav1.5", "result": 10500, "unit": "nM"}]}
{"smiles": "CC[C@H](C)[C@@H]1NC(=O)[C@@H]2CSSC[C@@H]3NC(=O)[C@H](C(C)C)NC(=O)[C@H](CC(C)C)NC(=O)[C@H](CC(N)=O)NC(=O)[C@@H]4CCCN4C(=O)[C@H](Cc4ccccn4)NC(=O)[C@H](CSSC[C@H](NC(=O)[C@@H](N)CC(=O)O)C(=O)N[C@@H](CC(C)C)C(=O)NCC(=O)N[C@@H](Cc4ccccc4)C(=O)N[C@@H](CCSC)C(=O)N[C@@H](CCCNC(=N)N)C(=O)N[C@@H](CCCCN)C(=O)N2)NC(=O)[C@H](CSSC[C@@H](C(=O)N[C@@H](CCCCN)C(=O)N[C@@H](Cc2ccc(O)cc2)C(=O)N[C@H](C(=O)N[C@@H](Cc2ccccc2)C(N)=O)C(C)C)NC(=O)[C@H](Cc2c[nH]c4ccccc24)NC(=O)[C@H](CCCCN)NC(=O)[C@H](Cc2cnc[nH]2)NC(=O)[C@H]([C@@H](C)O)NC(=O)[C@H](CCCNC(=N)N)NC(=O)[C@H](CO)NC3=O)NC(=O)[C@H](CCCCN)NC(=O)[C@H](CC(=O)O)NC(=O)[C@H](CC(N)=O)NC(=O)[C@H](CC(=O)O)NC(=O)[C@@H]2CCCN2C1=O", "note": "[compound 316] (H-DCLGFMRKCIPDNDKCC[2Pal]PNLVCSRTHKWCKYVF-NH2; disulfide 2-17, 9-23, 16-30)", "values": [{"measurement": "IC50", "setting": "hNav1.7; [2]", "result": 190, "unit": "nM"}, {"measurement": "IC50", "setting": "hNav1.3; Use", "result": 60, "unit": "nM"}, {"measurement": "IC50", "setting": "hNav1.5; Use", "result": 9170, "unit": "nM"}]}
{"smiles": "CC[C@H](C)[C@@H]1NC(=O)[C@@H]2CSSC[C@@H]3NC(=O)[C@H](c4ccccc4)NC(=O)[C@H](CC(C)C)NC(=O)[C@H](CC(N)=O)NC(=O)[C@@H]4CCCN4C(=O)[C@H](CCCNC(=N)N)NC(=O)[C@H](CSSC[C@H](NC(=O)[C@@H](N)CC(=O)O)C(=O)N[C@@H](CC(C)C)C(=O)NCC(=O)N[C@@H](Cc4ccccc4)C(=O)N[C@@H](CCSC)C(=O)N[C@@H](CCCNC(=N)N)C(=O)N[C@@H](CCCCN)C(=O)N2)NC(=O)[C@H](CSSC[C@@H](C(=O)N[C@@H](CCCCN)C(=O)N[C@@H](Cc2ccc(O)cc2)C(=O)N[C@H](C(=O)N[C@@H](Cc2ccccc2)C(N)=O)C(C)C)NC(=O)[C@H](Cc2c[nH]c4ccccc24)NC(=O)[C@H](CCCCN)NC(=O)[C@H](Cc2c[nH]cn2)NC(=O)[C@H]([C@@H](C)O)NC(=O)[C@H](CCCNC(=N)N)NC(=O)[C@H](CO)NC3=O)NC(=O)[C@H](CCCCN)NC(=O)[C@H](CC(=O)O)NC(=O)[C@H](CC(N)=O)NC(=O)[C@H](CC(=O)O)NC(=O)[C@@H]2CCCN2C1=O", "note": "[compound 330] (H-DCLGFMRKCIPDNDKCCRPNL[Phg]CSRTHKWCKYVF-NH2; disulfide 2-17, 9-23, 16-30)", "values": [{"measurement": "IC50", "setting": "hNav1.7; [2]", "result": 180, "unit": "nM"}, {"measurement": "IC50", "setting": "hNav1.3; Use", "result": 70, "unit": "nM"}, {"measurement": "IC50", "setting": "hNav1.5; Use", "result": 4690, "unit": "nM"}]}
{"smiles": "CC[C@H](C)[C@@H]1NC(=O)[C@@H]2CSSC[C@@H]3NC(=O)[C@H](C(C)C)NC(=O)[C@H](CC(C)C)NC(=O)[C@H](CC(N)=O)NC(=O)[C@@H]4CCCN4C(=O)[C@H](CCCNC(=N)N)NC(=O)[C@H](CSSC[C@H](NC(=O)[C@@H](N)CC(=O)O)C(=O)N[C@@H](CC(C)C)C(=O)NCC(=O)N[C@@H](Cc4ccccc4)C(=O)N[C@@H](CCSC)C(=O)N[C@@H](CCCNC(=N)N)C(=O)N[C@@H](CCCCN)C(=O)N2)NC(=O)[C@H](CSSC[C@@H](C(=O)N[C@@H](CCCCN)C(=O)N[C@@H](Cc2ccc(O)cc2)C(=O)N[C@H](C(=O)N[C@@H](Cc2ccccc2)C(N)=O)C(C)C)NC(=O)[C@H](Cc2c[nH]c4ccccc24)NC(=O)[C@H](CCCCN)NC(=O)[C@H](CCCNC(=N)N)NC(=O)[C@H]([C@@H](C)O)NC(=O)[C@H](CCCNC(=N)N)NC(=O)[C@H](CO)NC3=O)NC(=O)[C@H](CCCCN)NC(=O)[C@H](CC(=O)O)NC(=O)[C@H](CC(N)=O)NC(=O)[C@H](CC(=O)O)NC(=O)[C@@H]2CCCN2C1=O", "note": "[compound 71] (H-DCLGFMRKCIPDNDKCCRPNLVCSRTRKWCKYVF-NH2; disulfide 2-17, 9-23, 16-30)", "values": [{"measurement": "IC50", "setting": "hNav1.7", "result": 510, "unit": "nM"}, {"measurement": "IC50", "setting": "hNav1.3; Table 23, use, […]", "result": 510, "unit": "nM"}, {"measurement": "IC50", "setting": "hNav1.5; Table 23, use, […]", "result": 5220, "unit": "nM"}]}
